These results are taken from ChEMBL document CHEMBL1201862, “PubChem BioAssay data set” (2004).

Each structure is given as a SMILES string.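 96-well plates; 48 h exposure; 5 concentrations. Endpoints by linear interpolation between flanking doses. Not reached: highest tested concentration assigned. At the GI50, growth is halved.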 Active and inactive are the calls of the source. Rule as the data show it: active = GI50 up to about 1.1 µM and inactive = higher.

Among the test systems are DMS-114; M19-MEL; SNB-78; XF498; DMS-273; HOP-18; LXFL 529; DLD-1; RXF 631.
Common to all, as to experiment: NCI-60 cell line screen, 48 h

Consider `Oc1cc(-c2cccc(Br)c2)nc2cc3c(cc12)OCO3`, for which the GI50 in the assay with DMS-114 is 2.85 µM (inactive); in the assay on M19-MEL it was 4.37 µM (inactive); with SNB-78, 3.37 µM (inactive); with XF498 it was 4.16 µM (inactive); in the assay on DMS-273 it was 4.37 µM (inactive); in the assay on HOP-18, 15.7 µM (inactive). For the same molecule, the values for the GI50 with LXFL 529 and in the assay with DLD-1 were 2.26 µM (inactive) and 3.16 µM (inactive), respectively.
Turning to `C/N=C(\SC)N(C)c1nc(=[N+](C)C)ss1.[O-][Cl+3]([O-])([O-])[O-]`, the GI50 in the assay with SNB-78 is > 100 µM (inactive); with RXF 631, 2.28 µM (inactive); in the assay with XF498 it was 32.6 µM (inactive); in the assay on DMS-273 it was > 100 µM (inactive); in the assay on LXFL 529, 58.6 µM (inactive).
As for `COc1ccc(/C=C2\CCC(CCN3CCOCC3)C2=O)cc1` (stereo not given), the GI50 in the assay on DMS-114, with M19-MEL, in the assay with SNB-78, with XF498, in the assay on DMS-273 and in the assay with HOP-18 was > 100 µM (inactive) throughout. In addition, the GI50 in the assay on LXFL 529 and in the assay with DLD-1 was > 100 µM (inactive) in each case.
As to `CCNC(=O)O/N=C1/C=C2CC[C@@H]3C(CC[C@@]4(C)C3CC[C@@H]4OC(=O)NCC)[C@@]2(C)CC1` (stereo not given in full), the GI50 is 1.66 µM (inactive) with DMS-114; 3.13 µM (inactive) in the assay with M19-MEL; 2.67 µM (inactive) with SNB-78; 1.99 µM (inactive) in the assay with DMS-273; 1.79 µM (inactive) in the assay with LXFL 529; 5.9 µM (inactive) in the assay on DLD-1.
`Cc1ccc(NC(=O)SCCC(=O)O)cc1NC(=O)SCCC(=O)O`: the GI50 is > 100 µM (inactive) in the assay with DMS-114; > 100 µM (inactive) in the assay with SNB-78; > 10 µM (inactive) in the assay on DMS-273; > 100 µM (inactive) with LXFL 529; > 10 µM (inactive) in the assay on DLD-1.
For `Cn1c(=O)c2nc(-c3ccc(Cl)cc3)oc2n(C)c1=O`, the GI50 in the assay on DMS-114, in the assay on M19-MEL, with SNB-78, with XF498, in the assay on DMS-273 and with HOP-18 was > 100 µM (inactive) throughout. For the same molecule, the GI50 in the assay with LXFL 529 and in the assay on DLD-1 was > 100 µM (inactive) in each case.
Consider `CCOc1c(Cc2ccccc2)c(=O)n2c3ccccc3n3c(=O)n(C)c(=O)c1c23`, for which the GI50 with DMS-114, in the assay with M19-MEL, in the assay on SNB-78, in the assay on RXF 631, in the assay on XF498 and in the assay on DMS-273 was > 100 µM (inactive) throughout. The GI50 with HOP-18, with LXFL 529 and with DLD-1 was > 100 µM (inactive) throughout.
For the molecule `CC(C)c1cccc(C(C)C)c1NC(=O)C(=O)C1SC(=S)NC1=O` (stereo not given), the GI50 in the assay with M19-MEL, in the assay with SNB-78, with RXF 631, with XF498, in the assay on DMS-273 and in the assay with HOP-18 was > 100 µM (inactive) each time. For the same molecule, the GI50 in the assay on LXFL 529 and in the assay with DLD-1 was > 100 µM (inactive) each time.
Regarding `O=c1cccccc1NCCCCCCCNc1cccccc1=O`, the GI50 with M19-MEL is 24 µM (inactive); in the assay on SNB-78 it was 47.8 µM (inactive); in the assay on RXF 631, 8.02 µM (inactive); in the assay with XF498 it was 10.6 µM (inactive); in the assay on DMS-273 it was 33.3 µM (inactive); in the assay with LXFL 529, 16.9 µM (inactive). In addition, in the assay with DLD-1, the GI50 was 42.6 µM (inactive).
As for `Cc1[nH]c2ccccc2c1CC/C(=N\Nc1ccccc1)c1ccccc1`, the GI50 is > 100 µM (inactive) in the assay with SNB-78; > 100 µM (inactive) in the assay with RXF 631; 78.2 µM (inactive) in the assay with XF498; > 100 µM (inactive) in the assay with DMS-273; > 100 µM (inactive) in the assay with DLD-1.
Take `CCOC(=O)/C(=C/c1ccc(OC)c(OC)c1)C(=O)c1ccccc1`: the GI50 in the assay with DMS-114 is 15.2 µM (inactive); with M19-MEL it was 19 µM (inactive); in the assay with SNB-78, 17.1 µM (inactive); in the assay on XF498 it was 14.9 µM (inactive); in the assay with LXFL 529 it was 12.2 µM (inactive); with DLD-1, 15.4 µM (inactive).
For `O=c1oc2c3ccc4ccccc4c3n(CCN3CCCCC3)c2c2ccccc12`, the GI50 in the assay with DMS-114 was > 76 µM (inactive); in the assay on M19-MEL, 25.6 µM (inactive); in the assay on SNB-78, 20.9 µM (inactive); with RXF 631, 24.6 µM (inactive); in the assay on XF498, 21.4 µM (inactive); with DMS-273, 38.3 µM (inactive). Moreover, the GI50 in the assay with HOP-18 is > 100 µM (inactive); in the assay with LXFL 529, 43.9 µM (inactive); with DLD-1 it was 30.2 µM (inactive).
Regarding `COC(=O)NN1C(C)=C(C(=O)OC)C2(C#N)C(C(=O)OC)=C(C)N(NC(=O)OC)C12N` (stereo not given), the GI50 with DMS-114, in the assay with M19-MEL, in the assay with SNB-78, in the assay with RXF 631, with XF498 and in the assay with DMS-273 was > 100 µM (inactive) each time. The GI50 in the assay with HOP-18, in the assay with LXFL 529 and in the assay on DLD-1 was > 100 µM (inactive) each time.
Consider `N=C(N)N/N=C(/CCN1CCCC1)CC(c1ccccc1)c1c(O)c2ccccc2oc1=O` (stereo not given), for which the GI50 with DMS-114, in the assay with M19-MEL, with RXF 631, in the assay with XF498, in the assay with LXFL 529 and with DLD-1 was > 100 µM (inactive) each time.
With `CN(C)CC1CCCC/C1=N/OC(=O)c1ccc(Cl)cc1` (stereo not given), the GI50 with M19-MEL, in the assay on SNB-78, with XF498, with DMS-273, in the assay on HOP-18 and in the assay on LXFL 529 was > 100 µM (inactive) each time. Moreover, in the assay on DLD-1, the GI50 was > 100 µM (inactive).
With `N#CC(C(=O)C(=O)Nc1ccc(Cl)c(Cl)c1)c1ccc(Cl)cc1` (stereo not given), the GI50 in the assay with DMS-114 is 22.9 µM (inactive); in the assay on SNB-78, > 100 µM (inactive); with XF498 it was 61 µM (inactive); in the assay on DMS-273, > 100 µM (inactive); in the assay on HOP-18, 41 µM (inactive); in the assay on LXFL 529 it was 77.1 µM (inactive). Further, the GI50 with DLD-1 was 44.1 µM (inactive).
Turning to `CCCCCCCCCOC(=S)NCCCCC`, the GI50 is 21.7 µM (inactive) in the assay with DMS-114; 39.3 µM (inactive) in the assay on M19-MEL; 40.6 µM (inactive) with SNB-78; 25.5 µM (inactive) in the assay with DMS-273; 33.4 µM (inactive) in the assay with HOP-18; 33.3 µM (inactive) in the assay with LXFL 529. In the assay on DLD-1, the GI50 was 35.6 µM (inactive).
`Cc1ccc(Oc2ccccc2N)cc1`: the GI50 was 17.4 µM (inactive) in the assay on DMS-114; 29 µM (inactive) in the assay on SNB-78; > 100 µM (inactive) with RXF 631; 17.8 µM (inactive) with XF498; 32 µM (inactive) with DMS-273; > 100 µM (inactive) in the assay on HOP-18. Besides, the values for the GI50 with LXFL 529 and in the assay with DLD-1 were 15.7 µM (inactive) and 35 µM (inactive), respectively.
With `C#CC[C@]12CC(=O)CC[C@H]1CC(=O)C2`, the GI50 in the assay with M19-MEL, in the assay with SNB-78, in the assay on RXF 631, in the assay on DMS-273, with HOP-18 and in the assay on LXFL 529 was > 100 µM (inactive) in each case. Further, the GI50 with DLD-1 is > 100 µM (inactive).
With `CC1C(=O)N(C)C2(CO)C(=O)O[C@H](C)C12O` (stereo not given in full), the GI50 in the assay on DMS-114, in the assay with M19-MEL, in the assay on SNB-78, in the assay with HOP-18 and with DLD-1 was > 100 µM (inactive) throughout.
In the case of `CC[C@](C)(O)C(=O)O[C@H]1C(=O)O[C@@H]2C[C@H]3C(C)=CC(=O)[C@@H](O)[C@]3(C)[C@H]3[C@@]4(O)OC[C@]32[C@@H]1[C@@H](C)[C@H]4O` [GLAUCARUBINONE], the GI50 with M19-MEL is 0.05 µM (active); with SNB-78, 0.0668 µM (active); in the assay with RXF 631, 0.543 µM (active); in the assay on DMS-273, 0.05 µM (active); in the assay on LXFL 529, < 0.0111 µM (active).
